Data on one molecule can be found in patent publication US9994584B2, “Process of synthesizing 3-(4-methylpiperazine-1-carbonyl)-7-oxabicyclo[2.2.1] heptane-2-carboxylic acid” (LIXTE BIOTECHNOLOGY, INC., priority 2014, dated 2018).

For one data set, the system named is PP2A. To be noted: used alone (Lu et al. 2009a); cited from earlier work.
Data set [1] is described as follows: Solubility in toluene (hot toluene trituration). It counts as physicochemical. Particulars: crude solids digested in hot toluene for 1 hour. How it is done: The crude solids (1 g) were digested in hot toluene (15 mL) for 1 hour. The slurry was cooled to room temperature and the solids were isolated by filtration. The solids were dried at 80° C., under vacuum, to afford 0.86 g (86%). […] Based on this observation, in the following experiment toluene was further tried as an anti-solvent.

The conditions of data set [2]: in vivo; with temozolomide, doxorubicin, docetaxel; cited from earlier work.
Data set [3] in a line: Solubility in water (water/2-propanol recrystallization). It counts as physicochemical. Particulars: crude solids, ambient temperature. On the procedure: The crude solids (0.5 g) were dissolved in water (1 mL) and 2-propanol (5 mL) was charged. The resulting slurry was stirred at room temperature for 1 hour, and then isolated by filtration. The solids were washed with 2-propanol (to cover the solids) and air dried to afford 0.1 g (20% recovery yield).

With `CN1CCN(C(=O)C2C(C(=O)O)[C@H]3CC[C@@H]2O3)CC1` (stereo in doubt) [LB100, 3-(4-methylpiperazine-1-carbonyl)-7-oxabicyclo[2.2.1] heptane-2-carboxylic acid], the anti-cancer activity entry with PP2A is reported as “has anti-cancer activity when used alone”. Also, the solubility in toluene entry in data set [1] is given as “low solubility of the material in toluene”. Further, in data set [2], the “potentiation of anti-tumor activity of standard cytotoxic anti-cancer drugs” value was “significantly potentiates in vivo” and the “toxicity in combination with cytotoxic anti-cancer drugs” value was “without observable increase in toxicity”. Besides, in data set [3], the solubility in water result was “high solubility in water”.
